Patent US9694015B2, “Methods for the treatment of locally advanced breast cancer” (Celgene Corporation, priority 2012, dated 2017)
Several values for one entry are separate records, joined by “and”; a condition that tells them apart may be missing. Equal values may be shown once.

Tests used:
Aiolos [1] = molecular target: T1, Aiolos (Homo sapiens (Human), UniProt Q9UKT9); assay: Aiolos protein in myeloma cells; assay type: cell-based
Aiolos [2] = molecular target: T1, Aiolos; assay: Aiolos expression by western blot at 6 hours; assay type: cell-based; details: western blot at 6 hours after the treatment
NFKB = NFKB DNA binding activity in DLBCL cells; assay type: cell-based
tumor cells = assay: Direct in vitro activity against tumor cells; assay type: cell-based
Aiolos [3] = molecular target: T1, Aiolos; assay: Endogenous Aiolos in breast cancer cells (western blot); assay type: cell-based
Method: Cell lines (AU565, ZR 75-1, BT-474, EFM-192A, HCC1954, HCC70, MB436 and BT549) were maintained using standard cell culture techniques. For endogenous Aiolos expression, cells were seeded in a 6 well plate at 0.5×10^6 cells per well in a 3 mL volume of media. Cells were allowed to adhere to the plate overnight.
(§1) Cells were harvested and lysed in Pierce #89900 Ripa buffer containing 2× protease inhibitor cocktail from Pierce #78442. The lysate was applied to a QiaShredder to remove DNA. Total protein yield was measured using BioRad DC protein determination kit (Cat#500-0112). Lysates were stored at −80° C. until use. Samples were applied to BioRad Criterion PreCast gels, 10% (Bio-Rad#345-0010) and transferred to Bio-Rad Nitrocellulose/Filter Paper Sandwiches (#162-0233) for western blot analysis.

[4] = GLP 28-day toxicity study in rat; assay type: in vivo
[5] = GLP 28-day toxicity study in monkey; assay type: in vivo
Aiolos [6] = molecular target: T1, Aiolos; assay: Overexpressed flag-Aiolos-myc fusion protein in AU565 cells (western blot); assay type: cell-based
Method: In some experiments, cell lines were transfected with an Aiolos overexpression vector using Lipofectamine reagent in a batch method. Cells were seeded in a 12 well plate at 1×10^5 cells in a 3 mL volume per well. Where specified, cells were pretreated with MG132 at 10 uM for 1 hour, or DMSO was added as a control.
as §1

RANTES = assay: LPS-stimulated hPBMC cytokine/chemokine production: RANTES enhancement; assay type: cell-based, human
[7] = test system: U87 (GBM), H929 (MM), WSU-DLCL2 and DOHH2 (NHL) xenografts; assay: Xenografts, single agent; assay type: in vivo
MCP-1 = assay: LPS-stimulated hPBMC cytokine/chemokine production: MCP-1 enhancement; assay type: cell-based, human
Source text: (§2) Data provided are IC50 (μM) values for the indicated cytokines

IL-10 = assay: LPS-stimulated hPBMC cytokine/chemokine production: IL-10 enhancement; assay type: cell-based, human
Source text: as §2

HIF1-α = assay: Hypoxia-induced HIF1-α expression in solid tumor cell lines; assay type: cell-based; details: solid tumor cell lines (e.g., breast, ovarian, colorectal, HCC)
Ikaros = Ikaros (Homo sapiens (Human), UniProt Q13422); assay: Ikaros expression by western blot at 6 hours; assay type: cell-based; details: western blot at 6 hours after the treatment
Aiolos [8] = molecular target: T1, Aiolos; assay: Aiolos expression with and without proteasome inhibitor; assay type: cell-based
Source text: It appeared that the inhibitory effect correlates with compound's anti-proleferative activity in myeloma cells.

With Cc1nc2cccc(N)c2c(=O)n1C1CCC(=O)NC1=O (stereo not shown) [Compound A, 3-(5-amino-2-methyl-4-oxo-4H-quinazolin-3-yl)-piperidine-2,6-dione] the “inhibitory effect on Aiolos expression” value (Aiolos [1]) was “showed inhibitory effect”, the “expression of Aiolos” value (Aiolos [2]) was “inhibited” and the “NFKB DNA binding activity” value (NFKB) was “partially inhibits”. For the same molecule, the “direct in vitro activity against tumor cells” value (tumor cells) was “limited direct in vitro activity”, the “endogenous Aiolos” value (Aiolos [3]; Her^2+ cells (AU565, BT-474, EFM-192A and HCC1954)) was “inhibited” and the “levels of Aiolos” value (Aiolos [3]; ZR 75-1 and AU565 cell lines, 24 hours after the treatment) was “reduced the levels of Aiolos”. The “Rat STD10 (severely toxic dose in 10% of the animals), Animal Dose” value ([4]; 28-day toxicity study, rat) was 300 mg mg base/kg/day, the “HED (mg/person) from rat STD10” value ([4]; 60-kg human body weight) was 2900 mg mg base/person and the “HED (mg/kg) from rat STD10” value ([4]; human equivalent dose) was 48 mg mg base/kg. For the same molecule, the “Starting Dose (mg) from rat STD10” value ([4]; safety factor 10) was 290 mg mg base, the “Monkey HNSTD” value ([5]; 28-day toxicity study, monkey) was 6 mg/m^2 and the “Monkey HNSTD (highest non-severely toxic dose), Animal Dose” value ([5]; 28-day toxicity study, monkey) was 0.5 mg base/kg/day and 0.5 mg mg base/kg/day. For the same molecule, the “HED (mg/person) from monkey HNSTD” value ([5]; 60-kg human body weight) was 10 mg mg base/person, the “HED (mg/kg) from monkey HNSTD” value ([5]; human equivalent dose) was 0.16 mg mg base/kg and the “Starting Dose (mg) from monkey HNSTD” value ([5]; safety factor 6) was 1.7 mg mg base. For the same molecule, the “time at which reduction of overexpressed Aiolos begins to show” value (Aiolos [6]; AU565 cells overexpressing flag-Aiolos-myc) was “about 5 hours”, the “inhibition of Aiolos with proteasome inhibitor MG-132” value (Aiolos [6]; addition of MG-132) was “rescued” and the “RANTES (% of control)” value (RANTES) was 131 % of control. The “single agent activity in xenografts” value [7] was “single agent activity was observed”, the “MCP-1 (% of control)” value (MCP-1) was 236 % of control and the “IL-10 (% of control)” value (IL-10) was 480 % of control. The “HIF1α induction in response to hypoxia” value (HIF1-α) was “inhibits”, the “expression of Ikaros” value (Ikaros) was “inhibited” and the “expression of Aiolos” value (Aiolos [8]; absence of a proteasome inhibitor, 60, 120, 240, 500 and 100 nM) was “inhibit the expression of Aiolos”. The “expression of Aiolos” value (Aiolos [8]; proteasome inhibitor present) was “little inhibition”.
